Literature values as cited in patent US7329419B2, “Herbal supplement to support weight loss” (Herbalife International, Inc., priority 2004, dated 2008).

How the values were obtained:
muscle tissues = conditions: animal studies

| Substance | energy expenditure (metabolic rate) in muscle tissues (muscle tissues) | increase in metabolism (compared to control) | respiratory quotient (in vivo) |
| --- | --- | --- | --- |
| Gingerols | increase energy expenditure | – | – |
| epigallocatechin-3-gallate [EGCG] | – | approximately 5% | lowers the respiratory quotient |
